Measurements published in patent US5036077A, “1-(benzylpiperidino)propan-2-ol derivatives, their preparation, their use as antimicrobial agents and the products in which they are present” (Sanofi, priority 1987, dated 1991).
≈ marks a conversion by molar mass, not a printed value.

Assays:
Assay type in all cases: cell-based
[1] = test system: Pseudomonas aeruginosa CNCM A22; experiment: Minimum bactericidal concentration, 30 min contact, strain 3; details: Pseudomonas aeruginosa CNCM A22, contact time 30 minutes, solubilizing agent given per product; for MBC: CNCMA22, 0.5 h, read-out: MBC, strain 3
Procedure: (§1) A bacterial inoculum is brought into contact with different dilutions of the test product for a limited time of 30 minutes. When the contact time has ended, an aliquot of the bacterial suspension/product mixture is deposited on the surface of a gelose culture medium containing an agent for neutralizing the antibacterial activity of the product. The bactericidal concentration chosen is the minimum concentration of the product which is necessary to prevent bacterial growth. This concentration is expressed in μg/ml.
3 - Pseudomonas aeruginosa CNCM A22;
(§2) The strains are maintained on Tryptic Soy Agar (TSA) marketed by Difco.
(§3) After 24 hours of culture at 37° C., the microbial growth is harvested with the aid of glass beads and 10 ml of diluent containing 1 g of tryptone and 8.5 g of sodium chloride in 1000 ml of distilled water. The suspension formed is shaken and the percentage transmission of light at 620 nm is measured on a spectrophotometer:
(§4) The bacterial inoculum corresponds to a 1/20 dilution of this bacterial suspension.
(§5) Plates containing cups receive different dilutions of the test product. These dilutions of the test product are brought into contact with the different bacterial suspensions using a multiple-site inoculator. After a contact time of 30 minutes, aliquots are transferred by means of this inoculator to the surface of a gelose medium (TSA) placed in petri dishes and containing an agent for neutralizing the activity, namely 20 g of lubrol W, 2.5 g of Tween 80, 2.5 g of sodium thiosulfate and 1% of egg yolk in 1000 ml of TSA (Difco). A reference for the efficacy of the neutralizing agent is prepared for each test product by depositing an aliquot of the dilution of the test product on the surface of the culture medium. After drying, the corresponding inoculum is deposited in the same place. A reference inoculum is prepared on a gelose medium with and without neutralizing agent. The results are read off after 48 hours of incubation at 37° C.
(§6) They indicate the minimum bactericidal concentrations (MBC) for strains 1, 2, 3 and 4 and the minimum fungicidal concentrations (MFC) for strain 5.

[2] = test system: Staphylococcus aureus CNCM 53154; experiment: Minimum bactericidal concentration, 30 min contact, strain 1; details: Staphylococcus aureus CNCM 53154, contact time 30 minutes, solubilizing agent (water, TEG or acetone) given per product; for MBC: CNCM53154, 0.5 h, read-out: MBC, strain 1
Procedure: as §1
1 - Staphylococcus aureus CNCM 53154;
as §2, §3, §4, §5, §6

[3] = test system: Streptococcus faecalis CNCM 5855; experiment: Minimum bactericidal concentration, 30 min contact, strain 2; details: Streptococcus faecalis CNCM 5855, contact time 30 minutes, solubilizing agent given per product; for MBC: Enterococcus faecalis, CNCM5855, 0.5 h, read-out: MBC, strain 2
Procedure: as §1
2 - Streptococcus faecalis CNCM 5855;
as §2, §3, §4, §5, §6

[4] = test system: Escherichia coli CNCM 54127; experiment: Minimum bactericidal concentration, 30 min contact, strain 4; details: Escherichia coli CNCM 54127, contact time 30 minutes, solubilizing agent given per product; for MBC: CNCM54127, 0.5 h, read-out: MBC, strain 4
Procedure: as §1
4 - Escherichia coli CNCM 54127.
as §2, §3, §4, §5, §6

[5] = test system: Candida albicans CNCM 1180; experiment: Minimum fungicidal concentration, strain 5; details: Candida albicans CNCM 1180, contact time 30 minutes, solubilizing agent given per product; for MFC: CNCM1180, 0.5 h, read-out: MFC, strain 5
Procedure: as §1, §5
The antifungal activity of the products according to the invention was also determined using the method described above. The representative strain of yeast selected for the study was Candida albicans CNCM 1180 (strain 5).
This is maintained on a gelose medium of Sabouraud Dextrose Agar, marketed by Difco. The technique is identical to that described for studying the antibacterial activity. After 48 hours of culture at 37° C., the microbial growth is harvested with the aid of glass beads and 5 ml of diluent containing 1 g of tryptone and 8.5 g of sodium chloride in 1000 ml of distilled water; a further 5 ml of the diluent are then added. In a spectrophotometer, this suspension gives a 2 to 3% transmission of light at 620 nm. The inoculum corresponds to a 1/10 dilution of this microbial suspension. A 1/100 dilution of this suspension, observed between a microscope slide and cover slip through a lens of magnification 40, should show 10 cells per field, which corresponds to 1 000 000 yeasts per ml.
as §6

Row | SMILES | MBC [1] [µg/mL] | MBC [2] [µg/mL] | MBC [3] [µg/mL] | MBC [4] [µg/mL] | MFC [5] [µg/mL] | MBC, strain 3 [1] [µg/mL] | MBC, strain 1 [2] [µg/mL] | MBC, strain 2 [3] [µg/mL] | MBC, strain 4 [4] [µg/mL] | MFC, strain 5 [5] [µg/mL]
1 | OC(COc1ccc(Cl)c(Cl)c1)CN1CCC(Cc2ccccc2)CC1 (racemic) [SR 45551 A] | 50 (≈ 127 µM) | > 200 | 50 (≈ 127 µM) | 50 (≈ 127 µM) | > 200 | – | – | – | – | –
2 | OC(COc1ccc(F)cc1F)CN1CCC(Cc2ccccc2)CC1 (racemic) [SR 44971 A] | 1000 (≈ 2770 µM) | 1000 (≈ 2770 µM) | 1000 (≈ 2770 µM) | 1000 (≈ 2770 µM) | 1000 (≈ 2770 µM) | – | – | – | – | –
3 | OC(CSc1ccc(Cl)c(Cl)c1)CN1CCC(Cc2ccc(Cl)cc2)CC1 (racemic) [SR 45077 A] | 50 (≈ 112 µM) | 50 (≈ 112 µM) | 10 (≈ 22.5 µM) | 10 (≈ 22.5 µM) | 50 (≈ 112 µM) | – | – | – | – | –
4 | OC(CSc1cccc(Br)c1)CN1CCC(Cc2ccccc2)CC1 (racemic) [SR 45204 A] | 50 (≈ 119 µM) | > 200 | > 200 | 50 (≈ 119 µM) | > 200 | – | – | – | – | –
5 | OC(COc1ccc(Cl)cc1)CN1CCC(Cc2ccccc2)CC1 (racemic) [SR 44334 A] | 100 (≈ 278 µM) | 500 (≈ 1390 µM) | 100 (≈ 278 µM) | 100 (≈ 278 µM) | – | – | – | – | – | –
6 | OC(CSc1ccc(Cl)c(Cl)c1)CN1CCCC(Cc2ccccc2)C1 (single isomer, unassigned) [SR 45236 A] | 50 (≈ 122 µM) | > 200 | 50 (≈ 122 µM) | 50 (≈ 122 µM) | > 200 | – | – | – | – | –
7 | Cl.OC(CSc1ccc(Br)cc1)CN1CCC(Cc2ccccc2)CC1 (stereo not drawn) [SR 44444 A, 1-(4-Benzylpiperidino)-3-(4-bromophenylthio)propan-2-ol hydrochloride] | 50 | 50 | 50 | 50 | – | – | – | – | – | –
8 | CS(=O)(=O)O.OC(COc1ccc(Cl)cc1Cl)CN1CCCC(Cc2ccccc2)C1 (stereo not drawn) [SR 44957 A, 1-(3-Benzylpiperidino)-3-(2,4-dichlorophenoxy)propan-2-ol methanesulfonate] | – | – | – | – | – | ≤ 10 | 50 | ≤ 10 | ≤ 10 | 50
9 | OC(COc1ccc(Cl)c(Cl)c1)CN1CCC(Cc2ccc(Cl)cc2)CC1 (racemic) [SR 45553 A] | 50 (≈ 117 µM) | 10 (≈ 23.3 µM) | 50 (≈ 117 µM) | 10 (≈ 23.3 µM) | 50 (≈ 117 µM) | – | – | – | – | –
10 | OC(COc1cccc2ccccc12)CN1CCC(Cc2ccccc2)CC1 (racemic) [SR 44644 A] | 50 (≈ 133 µM) | 50 (≈ 133 µM) | 50 (≈ 133 µM) | 50 (≈ 133 µM) | 50 (≈ 133 µM) | – | – | – | – | –
11 | Cl.OC(COc1ccc(Cl)cc1Cl)CN1CCC(Cc2ccccc2)CC1 (stereo not drawn) [SR 44333 A, 1-(4-Benzylpiperidino)-3-(2,4-dichlorophenoxy)propan-2-ol hydrochloride] | 50 | 100 | 100 | 50 | – | – | – | – | – | –
12 | OC(COc1ccccc1-c1ccccc1)CN1CCC(Cc2ccccc2)CC1 (racemic) [SR 44676 A] | 10 (≈ 24.9 µM) | 200 (≈ 498 µM) | 50 (≈ 125 µM) | 10 (≈ 24.9 µM) | 50 (≈ 125 µM) | – | – | – | – | –
13 | OC(COc1ccc(Cl)cc1Cc1ccccc1)CN1CCC(Cc2ccccc2)CC1 (racemic) [SR 44719 B] | 10 (≈ 22.2 µM) | 10 (≈ 22.2 µM) | 5 (≈ 11.1 µM) | 5 (≈ 11.1 µM) | 10 (≈ 22.2 µM) | – | – | – | – | –
14 | OC(COc1cc(Cl)ccc1Oc1ccc(Cl)cc1Cl)CN1CCC(Cc2ccccc2)CC1 (racemic) [SR 44641 A] | 10 (≈ 19.2 µM) | 50 (≈ 96 µM) | 10 (≈ 19.2 µM) | 5 (≈ 9.6 µM) | 50 (≈ 96 µM) | – | – | – | – | –
15 | OC(COc1ccc(Br)cc1)CN1CCC(Cc2ccccc2)CC1 (racemic) [SR 44251 A] | 100 (≈ 247 µM) | 100 (≈ 247 µM) | 100 (≈ 247 µM) | 100 (≈ 247 µM) | – | – | – | – | – | –
16 | OC(COc1cccc2ccccc12)CN1CCC(Cc2ccc(Cl)cc2)CC1 (racemic) [SR 44999 A] | ≤ 10 | 50 (≈ 122 µM) | ≤ 10 | ≤ 10 | ≤ 10 | – | – | – | – | –
17 | OC(COc1ccc(-c2ccccc2)cc1)CN1CCC(Cc2ccccc2)CC1 (racemic) [SR 44715 A] | 50 (≈ 125 µM) | 50 (≈ 125 µM) | 50 (≈ 125 µM) | 50 (≈ 125 µM) | 200 (≈ 498 µM) | – | – | – | – | –
18 | Cl.OC(COc1ccc2ccccc2c1Br)CN1CCC(Cc2ccccc2)CC1 (stereo not drawn) [SR 44716 A, 1-(4-Benzylpiperidino)-3-(1-bromonaphth-2-yloxy)propan-2-ol hydrochloride] | 10 | 50 | 50 | 10 | 50 | – | – | – | – | –
19 | OC(COc1ccc(Cl)cc1Cl)CN1CCC(Cc2ccccc2)CC1 (racemic) [SR 44333 B, 1-(4-Benzylpiperidino)-3-(2,4-dichlorophenoxy)propan-2-ol methanesulfonate] | 50 | 50 | 50 | 50 | 50 | – | – | – | – | –
20 | Cl.OC(COc1ccc(Cl)cc1Cc1ccccc1)CN1CCC(Cc2ccccc2)CC1 (stereo not drawn) [SR 44719 A, 3-(2-Benzyl-4-chlorophenoxy)-1-(4-benzylpiperidino)propan-2-ol hydrochloride] | 10 | 10 | 10 | 5 | 50 | – | – | – | – | –
21 | OC(CSc1ccc(Cl)c(Cl)c1)CN1CCCC(Cc2ccccc2)C1 (single isomer, unassigned) [SR 45237 A] | – | – | – | – | – | – | > 200 | 50 (≈ 122 µM) | – | > 200
22 | OC(CSc1ccc(Cl)c(Cl)c1)CN1CCC(Cc2ccccc2)CC1 (racemic) [SR 44473 A] | 50 (≈ 122 µM) | 1000 (≈ 2440 µM) | 50 (≈ 122 µM) | 50 (≈ 122 µM) | 50 (≈ 122 µM) | – | – | – | – | –
23 | CC(C)(C)c1ccc(OCC(O)CN2CCC(Cc3ccccc3)CC2)cc1 (racemic) [SR 44648 A] | 50 (≈ 131 µM) | 200 (≈ 524 µM) | 200 (≈ 524 µM) | 50 (≈ 131 µM) | 200 (≈ 524 µM) | – | – | – | – | –
24 | OC(COc1ccc2ccccc2c1)CN1CCC(Cc2ccccc2)CC1 (racemic) [SR 44807 A] | 200 (≈ 533 µM) | 1000 (≈ 2660 µM) | 1000 (≈ 2660 µM) | 200 (≈ 533 µM) | 1000 (≈ 2660 µM) | – | – | – | – | –
25 | OC(COc1cc(Br)c2ccccc2c1)CN1CCC(Cc2ccccc2)CC1 (racemic) [SR 44674 A] | 10 (≈ 22 µM) | 10 (≈ 22 µM) | 10 (≈ 22 µM) | 10 (≈ 22 µM) | 200 (≈ 440 µM) | – | – | – | – | –
26 | OC(COc1cc(Cl)c(Cl)cc1Cl)CN1CCC(Cc2ccccc2)CC1 (racemic) [SR 44560 A] | 50 (≈ 117 µM) | 10 (≈ 23.3 µM) | 50 (≈ 117 µM) | 5 (≈ 11.7 µM) | 50 (≈ 117 µM) | – | – | – | – | –
27 | OC(CSc1ccc(Br)cc1)CN1CCC(Cc2ccc(Cl)cc2)CC1 (racemic) [SR 45076 A] | 50 (≈ 110 µM) | 50 (≈ 110 µM) | 10 (≈ 22 µM) | 10 (≈ 22 µM) | 50 (≈ 110 µM) | – | – | – | – | –
